Assay results taken from ChEMBL document CHEMBL1909046, “DrugMatrix in vitro pharmacology data”.

What was measured:
[1] = molecular target: Protein kinase C alpha type (Homo sapiens, UniProt P17252); assay type: cell-based; conditions: sf9;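 also: inhibition of PKCalpha kinase activity measured in an enzyme assay with histone as the phosphorylation substrate; in other assays of this panel Not Active means under 50% inhibition at 10 µM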
[2] = molecular target: cGMP-specific 3',5'-cyclic phosphodiesterase (Homo sapiens, UniProt O76074); assay: DRUGMATRIX: Phosphodiesterase PDE5 enzyme inhibition (substrate: [3H]cGMP + cGMP); assay type: tissue-based, Platelet; conditions: platelet; Not Active = under 50% inhibition at 10 µM
[3] = DRUGMATRIX: Leukotriene, BLT (LTB4) radioligand binding (ligand: [3H]LTB4); assay type: cell membranes, Membrane; conditions: u-937; Not Active = under 50% inhibition at 10 µM
[4] = molecular target: T1, Amine oxidase [flavin-containing] A (Homo sapiens, UniProt P21397); assay: DRUGMATRIX: Monoamine Oxidase MAO-A enzyme inhibition (substrate: Kynuramine); design: species or system BTI-TN-5B1-4; conditions: bti-tn-5b1-4; Not Active = under 50% inhibition at 10 µM
T1 sequence (P21397 whole entry): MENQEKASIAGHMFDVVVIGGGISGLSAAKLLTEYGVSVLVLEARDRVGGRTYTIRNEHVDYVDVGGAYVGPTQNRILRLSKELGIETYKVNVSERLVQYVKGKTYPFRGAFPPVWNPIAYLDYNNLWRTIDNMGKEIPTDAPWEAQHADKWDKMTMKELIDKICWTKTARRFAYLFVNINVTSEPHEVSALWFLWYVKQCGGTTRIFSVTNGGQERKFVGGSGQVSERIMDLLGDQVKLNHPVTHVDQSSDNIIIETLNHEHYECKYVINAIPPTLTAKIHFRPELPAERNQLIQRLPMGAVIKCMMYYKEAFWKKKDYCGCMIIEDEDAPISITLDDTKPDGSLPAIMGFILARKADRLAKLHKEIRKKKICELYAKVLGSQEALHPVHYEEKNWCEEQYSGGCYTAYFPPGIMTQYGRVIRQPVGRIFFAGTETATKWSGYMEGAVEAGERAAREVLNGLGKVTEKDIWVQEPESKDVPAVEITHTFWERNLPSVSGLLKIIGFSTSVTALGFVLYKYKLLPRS

[5] = molecular target: T2, Neuropeptide Y receptor type 1 (Homo sapiens, UniProt P25929); assay type: cell membranes, Membrane; conditions: sk-n-mc; also: in other assays of this panel Not Active means under 50% inhibition at 10 µM
T2 sequence (P25929 whole entry): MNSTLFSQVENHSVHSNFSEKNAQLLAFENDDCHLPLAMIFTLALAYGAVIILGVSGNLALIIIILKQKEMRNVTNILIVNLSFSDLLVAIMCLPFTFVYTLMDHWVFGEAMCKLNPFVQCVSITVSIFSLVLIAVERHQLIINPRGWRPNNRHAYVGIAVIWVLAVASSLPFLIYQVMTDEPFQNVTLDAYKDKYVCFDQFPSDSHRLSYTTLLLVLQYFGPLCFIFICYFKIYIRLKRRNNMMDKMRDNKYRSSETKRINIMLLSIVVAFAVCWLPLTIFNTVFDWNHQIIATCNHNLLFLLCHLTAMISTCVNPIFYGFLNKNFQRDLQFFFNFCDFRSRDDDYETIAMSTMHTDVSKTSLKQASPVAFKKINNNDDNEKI

[6] = DRUGMATRIX: Calcium Channel Type L, Benzothiazepine radioligand binding (ligand: [3H] Diltiazem); assay type: cell membranes, Rattus norvegicus, Wistar, Brain, Membrane; conditions: Not Active = under 50% inhibition at 10 µM
Cytochrome P450 1A2 = molecular target: T3, Cytochrome P450 1A2 (Homo sapiens, UniProt P05177); conditions: bti-tn-5b1-4; also: in other assays of this panel Not Active means under 50% inhibition at 10 µM
T3 sequence (P05177 whole entry): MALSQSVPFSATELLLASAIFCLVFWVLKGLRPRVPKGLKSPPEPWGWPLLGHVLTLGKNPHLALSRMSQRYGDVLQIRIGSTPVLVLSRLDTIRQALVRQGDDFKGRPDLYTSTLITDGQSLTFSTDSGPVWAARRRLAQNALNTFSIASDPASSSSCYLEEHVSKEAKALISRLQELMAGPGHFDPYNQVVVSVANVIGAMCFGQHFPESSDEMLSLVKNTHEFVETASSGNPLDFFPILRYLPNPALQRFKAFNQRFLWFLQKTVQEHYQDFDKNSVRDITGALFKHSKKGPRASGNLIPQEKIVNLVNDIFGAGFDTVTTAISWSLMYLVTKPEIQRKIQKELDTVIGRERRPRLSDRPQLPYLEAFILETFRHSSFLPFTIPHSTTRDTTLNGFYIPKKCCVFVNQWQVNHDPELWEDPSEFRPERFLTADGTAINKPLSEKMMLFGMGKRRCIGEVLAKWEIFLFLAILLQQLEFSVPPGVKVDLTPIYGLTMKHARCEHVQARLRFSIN

Estrogen receptor beta = Estrogen receptor beta (Homo sapiens, UniProt Q92731); conditions: sf9; also: in other assays of this panel Not Active means under 50% inhibition at 10 µM
Estrogen receptor beta, sequence (Q92731 whole entry): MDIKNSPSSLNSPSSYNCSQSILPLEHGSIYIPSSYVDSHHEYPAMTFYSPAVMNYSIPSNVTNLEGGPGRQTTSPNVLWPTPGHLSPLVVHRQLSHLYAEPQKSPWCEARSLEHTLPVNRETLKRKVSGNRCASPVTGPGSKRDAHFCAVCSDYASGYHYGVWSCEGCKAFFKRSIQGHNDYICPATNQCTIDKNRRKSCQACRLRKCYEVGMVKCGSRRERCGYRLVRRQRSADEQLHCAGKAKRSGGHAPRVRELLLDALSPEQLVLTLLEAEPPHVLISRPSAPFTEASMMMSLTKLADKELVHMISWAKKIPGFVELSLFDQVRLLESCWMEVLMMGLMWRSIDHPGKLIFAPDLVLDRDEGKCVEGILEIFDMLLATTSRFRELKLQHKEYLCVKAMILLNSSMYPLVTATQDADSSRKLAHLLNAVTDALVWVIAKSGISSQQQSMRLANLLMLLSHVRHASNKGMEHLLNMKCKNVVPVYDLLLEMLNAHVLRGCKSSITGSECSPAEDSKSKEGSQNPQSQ

[7] = molecular target: T4, Cysteinyl leukotriene receptor 1 (Homo sapiens, UniProt Q9Y271); assay type: cell membranes, CHO-K1, Membrane; conditions: cho-k1; also: in other assays of this panel Not Active means under 50% inhibition at 10 µM
T4 sequence (Q9Y271 whole entry): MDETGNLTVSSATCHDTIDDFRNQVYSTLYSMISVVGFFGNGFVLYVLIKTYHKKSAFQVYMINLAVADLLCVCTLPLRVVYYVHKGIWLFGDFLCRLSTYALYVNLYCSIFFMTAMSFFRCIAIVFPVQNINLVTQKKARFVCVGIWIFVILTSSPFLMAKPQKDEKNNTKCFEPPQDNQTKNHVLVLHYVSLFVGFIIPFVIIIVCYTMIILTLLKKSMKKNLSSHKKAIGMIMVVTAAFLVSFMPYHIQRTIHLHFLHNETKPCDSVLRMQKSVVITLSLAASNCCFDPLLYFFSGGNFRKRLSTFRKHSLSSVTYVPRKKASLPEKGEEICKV

Cytochrome P450 2D6 = Cytochrome P450 2D6 (Homo sapiens, UniProt P10635); conditions: bti-tn-5b1-4; also: in other assays of this panel Not Active means under 50% inhibition at 10 µM
Cytochrome P450 2D6, sequence (P10635 whole entry): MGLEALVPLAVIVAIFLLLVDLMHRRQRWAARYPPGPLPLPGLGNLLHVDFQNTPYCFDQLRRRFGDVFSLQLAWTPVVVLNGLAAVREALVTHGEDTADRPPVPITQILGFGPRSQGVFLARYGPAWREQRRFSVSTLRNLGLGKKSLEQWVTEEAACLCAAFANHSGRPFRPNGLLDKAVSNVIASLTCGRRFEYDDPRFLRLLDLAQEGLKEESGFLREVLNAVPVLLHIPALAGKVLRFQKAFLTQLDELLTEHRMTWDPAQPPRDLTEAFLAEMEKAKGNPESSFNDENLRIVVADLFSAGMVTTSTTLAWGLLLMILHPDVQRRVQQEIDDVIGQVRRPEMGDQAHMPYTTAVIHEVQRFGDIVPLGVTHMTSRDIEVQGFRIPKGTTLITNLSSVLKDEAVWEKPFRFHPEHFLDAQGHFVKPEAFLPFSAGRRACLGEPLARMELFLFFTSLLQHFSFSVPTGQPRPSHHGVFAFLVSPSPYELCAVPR

[8] = DRUGMATRIX: Glutamate, AMPA radioligand binding (ligand: [3H] AMPA); assay type: cell membranes, Rattus norvegicus, Wistar, Cerebral cortex, Membrane; conditions: Not Active = under 50% inhibition at 10 µM
Carbonic anhydrase 2 = Carbonic anhydrase 2 (Homo sapiens, UniProt P00918); assay: DRUGMATRIX: Carbonic Anhydrase II enzyme inhibition (substrate: 4-Nitrophenyl acetate (4-NPA)); assay type: tissue-based, Erythrocyte; conditions: erythrocyte; Not Active = under 50% inhibition at 10 µM

COC1=CC(=O)C[C@@H](C)[C@]12Oc1c(Cl)c(OC)cc(OC)c1C2=O [GRISEOFULVIN]
Not Active: IC50 [1] | IC50 [2] | IC50 [3] | Ki [3] | IC50 [4] | IC50 [5] | IC50 [6] | Ki [6] | IC50 (Cytochrome P450 1A2) | Ki (Cytochrome P450 1A2) | IC50 (Estrogen receptor beta) | IC50 [7] | IC50 (Cytochrome P450 2D6) | Ki (Cytochrome P450 2D6) | IC50 [8] | Ki [8] | IC50 (Carbonic anhydrase 2)

C/C=C1\[C@H]2C=C(C)C[C@]1(N)c1ccc(=O)[nH]c1C2 [HUPERZINE A]
Not Active: IC50 [1] | IC50 [2] | IC50 [3] | Ki [3] | IC50 [4] | IC50 [5] | IC50 [6] | Ki [6] | IC50 (Cytochrome P450 1A2) | Ki (Cytochrome P450 1A2) | IC50 (Estrogen receptor beta) | IC50 [7] | IC50 (Cytochrome P450 2D6) | Ki (Cytochrome P450 2D6) | IC50 [8] | Ki [8] | IC50 (Carbonic anhydrase 2)

CN1CCC[C@H]1c1cccnc1 [NICOTINE]
Not Active: IC50 [1] | IC50 [2] | IC50 [3] | Ki [3] | IC50 [4] | IC50 [5] | IC50 [6] | Ki [6] | IC50 (Cytochrome P450 1A2) | Ki (Cytochrome P450 1A2) | IC50 (Estrogen receptor beta) | IC50 [7] | IC50 (Cytochrome P450 2D6) | Ki (Cytochrome P450 2D6) | IC50 [8] | Ki [8] | IC50 (Carbonic anhydrase 2)

O=C1CN=C(c2ccccc2)c2cc([N+](=O)[O-])ccc2N1 [NITRAZEPAM]
Not Active: IC50 [1] | IC50 [2] | IC50 [3] | Ki [3] | IC50 [4] | IC50 [5] | IC50 [6] | Ki [6] | IC50 (Cytochrome P450 1A2) | Ki (Cytochrome P450 1A2) | IC50 (Estrogen receptor beta) | IC50 [7] | IC50 (Cytochrome P450 2D6) | Ki (Cytochrome P450 2D6) | IC50 [8] | Ki [8] | IC50 (Carbonic anhydrase 2)

Oc1cccc2cccnc12 [OXYQUINOLINE]
Not Active: IC50 [1] | IC50 [2] | IC50 [3] | Ki [3] | IC50 [4] | IC50 [5] | IC50 [6] | Ki [6] | IC50 (Cytochrome P450 1A2) | Ki (Cytochrome P450 1A2) | IC50 (Estrogen receptor beta) | IC50 [7] | IC50 (Cytochrome P450 2D6) | Ki (Cytochrome P450 2D6) | IC50 [8] | Ki [8] | IC50 (Carbonic anhydrase 2)

CN(C)[C@@H]1C(O)=C(C(N)=O)C(=O)[C@@]2(O)C(O)=C3C(=O)c4c(O)cccc4[C@@](C)(O)[C@H]3[C@H](O)[C@@H]12 [OXYTETRACYCLINE]
Not Active: IC50 [1] | IC50 [2] | IC50 [3] | Ki [3] | IC50 [4] | IC50 [5] | IC50 [6] | Ki [6] | IC50 (Cytochrome P450 1A2) | Ki (Cytochrome P450 1A2) | IC50 (Estrogen receptor beta) | IC50 [7] | IC50 (Cytochrome P450 2D6) | Ki (Cytochrome P450 2D6) | IC50 [8] | Ki [8] | IC50 (Carbonic anhydrase 2)

CC(C)(S)[C@@H](N)C(=O)O [PENICILLAMINE]
Not Active: IC50 [1] | IC50 [2] | IC50 [3] | Ki [3] | IC50 [4] | IC50 [5] | IC50 [6] | Ki [6] | IC50 (Cytochrome P450 1A2) | Ki (Cytochrome P450 1A2) | IC50 (Estrogen receptor beta) | IC50 [7] | IC50 (Cytochrome P450 2D6) | Ki (Cytochrome P450 2D6) | IC50 [8] | Ki [8] | IC50 (Carbonic anhydrase 2)
